Measurements reported in paper PMC9502836, “Zika Virus Inhibitors Based on a 1,3-Disubstituted 1H-Pyrazolo[3,4-d]pyrimidine-amine Scaffold” (Molecules, 2022).
Like-named read-outs stand apart in the source and are kept apart here.

Legend:
[1] = Cell viability (CC50) assay, MTS-based; settings: human; for viability at 3 days, 10 µM: 10 µM compound, Huh7 cells, read-out: ZIKV Reporter Assay Viability (%) at 10 µM
Experimental: (§1) In the current study, we continued to use our previously reported luciferase-based ZIKV reporter assay as a primary antiviral screening, by which newly synthesized compounds were tested (at 10 µM) along with NITD008 (Figure 1, at 1 µM), a flavivirus RNA-dependent RNA polymerase (RdRp) inhibitor, and NSC 12155 (Figure 1, at 10 µM), a flavivirus NS5 methyltransferase (MTase) inhibitor, as reference compounds (Table 1). […] For active compounds (>60% titer-reduction), dose-response experiments were performed to determine EC50 (half maximal effective concentration, a concentration that is needed to cause half of the maximum possible pharmacological effect) and CC50 (half cytotoxic concentration, a concentration that is required to reduce cell viability by 50%) values. For selected compounds, EC50 values in the reporter assay were also measured.
The cell viability assay was performed in Huh7 cells as previously reported. Briefly, non-infected Huh7 cells were treated with the testing compounds for 3 days. Viability was measured by absorbance at […] using the MTS-based tetrazolium reduction CellTiter 96 Aqueous Non-Radioactive cell proliferation assay (Promega).

luciferase reporter ZIKV = experiment: luciferase-based ZIKV reporter assay in Huh7 cells; assay type: cell-based; settings: Zika virus; for inhibition at 10 µM: Huh-7, 72 h, read-out: ZIKV Reporter Assay Inhibition (%) at 10 µM
Experimental: as §1
(§2) The ZIKV reporter assay and titer-reduction assay were performed as previously reported. Briefly, Huh7 cells (1.5 × 10^4) were seeded in a 96-well plate and inoculated with a luciferase reporter ZIKV (MOI=0.2). After two hours, the cells were treated with medium containing the compound (10 µM). After 3 days post-infection, the cells were lysed, the Nanoluc signal was detected using the Nano-Glo® luciferase assay (Promega), then measured using a Neo 2 plate reader (BioTek, Winooski, VT, USA). For titer-reduction assays, 1.5 × 10^5 Huh7 cell were seeded in a 24-well plate. Next day, the cells were inoculated with ZIKV for two hours. The inoculum was replaced with compound-containing medium (8.5 µM) and incubated for 3 days. Supernatants were collected and viral titers were estimated by plaque assay.

ZIKV = ZIKV titer reduction assay (plaque assay of supernatants) in Huh7 cells; assay type: cell-based; settings: Zika virus; for inhibition at 8.5 µM: Huh-7, 72 h, read-out: Titer Reduction Assay % at 8.5 µM
Experimental: as §1, §2

[2] = 8.5 µM compound, Huh7 cells, 3 days
[3] = Huh-7, Huh7 cells, read-out: Titer Reduction Assay EC50
[4] = non-infected Huh7 cells, 3 days, read-out: CC50

| SMILES | viability at 3 days, 10 µM ([1]; 3 days) | inhibition at 10 µM (luciferase reporter ZIKV) | inhibition at 8.5 µM (ZIKV; [2]) | other results |
| --- | --- | --- | --- | --- |
| Nc1ncnc2c1c(CNc1ccccc1)cn2Cc1ccc([N+](=O)[O-])cc1 [Compound 4, 7-(4-Nitrobenzyl)-5-((phenylamino)methyl)-7H-pyrrolo[2,3-d]pyrimidin-4-amine] | 40% | 91% |  |  |
| Nc1ncnc2c1c(COc1ccccc1)cn2Cc1ccc([N+](=O)[O-])cc1 [Compound 5, 7-(4-Nitrobenzyl)-5-(phenoxymethyl)-7H-pyrrolo[2,3-d]pyrimidin-4-amine] | 82% | 62% | 94% | EC50 (ZIKV; [3]): 4.3 µM; CC50 at 3 days [1, 4]: 58 µM |
| Nc1ncnc2c1c(COc1ccccc1)nn2Cc1ccc([N+](=O)[O-])cc1 [Compound 6, 1-(4-Nitrobenzyl)-3-(phenoxymethyl)-1H-pyrazolo[3,4-d]pyrimidin-4-amine] | 82% | 65% | 65% | EC50 (ZIKV; [3]): 5.1 µM; CC50 at 3 days [1, 4]: 39 µM |
| Nc1ncnc2c1c(COc1ccccc1)nn2Cc1ccccc1 [Compound 7, 1-Benzyl-3-(phenoxymethyl)-1H-pyrazolo[3,4-d]pyrimidin-4-amine] | 99% | 0% |  |  |
| Nc1ncnc2c1c(COc1ccccc1)nn2Cc1ccccc1[N+](=O)[O-] [Compound 8, 1-(2-Nitrobenzyl)-3-(phenoxymethyl)-1H-pyrazolo[3,4-d]pyrimidin-4-amine] | 103% | 9% |  |  |
| Nc1ncnc2c1c(COc1ccccc1)nn2Cc1cccc([N+](=O)[O-])c1 [Compound 9, 1-(3-Nitrobenzyl)-3-(phenoxymethyl)-1H-pyrazolo[3,4-d]pyrimidin-4-amine] | 37% | 90% |  |  |
| Nc1ccccc1Cn1nc(COc2ccccc2)c2c(N)ncnc21 [Compound 10, 1-(2-Aminobenzyl)-3-(phenoxymethyl)-1H-pyrazolo[3,4-d]pyrimidin-4-amine] | 99% | 0% |  |  |
| Nc1cccc(Cn2nc(COc3ccccc3)c3c(N)ncnc32)c1 [Compound 11, 1-(3-Aminobenzyl)-3-(phenoxymethyl)-1H-pyrazolo[3,4-d]pyrimidin-4-amine] | 89% | 0% |  |  |
| Nc1ccc(Cn2nc(COc3ccccc3)c3c(N)ncnc32)cc1 [Compound 12, 1-(4-Aminobenzyl)-3-(phenoxymethyl)-1H-pyrazolo[3,4-d]pyrimidin-4-pmine] | 95% | 0% |  |  |
| Nc1ncnc2c1c(COc1ccccc1)nn2Cc1ccc(C(F)(F)F)cc1 [Compound 13, 3-(Phenoxymethyl)-1-(4-(trifluoromethyl)benzyl)-1H-pyrazolo[3,4-d]pyrimidin-4-amine] | 86% | 68% | 73% | EC50 (ZIKV; [3]): 6.5 µM; CC50 at 3 days [1, 4]: > 100 µM |
| CS(=O)(=O)c1ccc(Cn2nc(COc3ccccc3)c3c(N)ncnc32)cc1 [Compound 14, 1-(4-(Methylsulfonyl)Benzyl)-3-(phenoxymethyl)-1H-pyrazolo[3,4-d]pyrimidin-4-amine] | 93% | 58% | 52% |  |
| N#Cc1ccc(Cn2nc(COc3ccccc3)c3c(N)ncnc32)cc1 [Compound 15, 4-((4-Amino-3-(phenoxymethyl)-1H-pyrazolo[3,4-d]pyrimidin-1-yl)methyl)benzonitrile] | 99% | 37% |  |  |
| COC(=O)c1ccccc1Cn1nc(COc2ccccc2)c2c(N)ncnc21 [Compound 16, Methyl 2-((4-Amino-3-(phenoxymethyl)-1H-pyrazolo[3,4-d]pyrimidin-1-yl)methyl)benzoate] | 95% | 0% |  |  |
| COC(=O)c1cccc(Cn2nc(COc3ccccc3)c3c(N)ncnc32)c1 [Compound 17, Methyl 3-((4-Amino-3-(phenoxymethyl)-1H-pyrazolo[3,4-d]pyrimidin-1-yl)methyl)benzoate] | 38% | 88% |  |  |
| COC(=O)c1ccc(Cn2nc(COc3ccccc3)c3c(N)ncnc32)cc1 [Compound 18, Methyl 4-((4-amino-3-(phenoxymethyl)-1H-pyrazolo[3,4-d]pyrimidin-1-yl)methyl)benzoate] | 95% | 6% |  |  |
| NC(=O)c1ccc(Cn2nc(COc3ccccc3)c3c(N)ncnc32)cc1 [Compound 19, 4-((4-Amino-3-(phenoxymethyl)-1H-pyrazolo[3,4-d]pyrimidin-1-yl)methyl)benzamide] | 77% | 63% | 22% |  |
| Nc1ncnc2c1c(COc1ccccc1)nn2Cc1ccnc(Cl)c1 [Compound 20, 1-((2-Chloropyridin-4-yl)methyl)-3-(phenoxymethyl)-1H-pyrazolo[3,4-d]pyrimidin-4-amine] | 39% | 88% |  |  |
| Nc1ncnc2c1c(COc1ccccc1)nn2Cc1ccc(Cl)nc1 [Compound 21, 1-((6-Chloropyridin-3-yl)methyl)-3-(phenoxymethyl)-1H-pyrazolo[3,4-d]pyrimidin-4-amine] | 64% | 82% |  | inhibition at 8.5 µM (ZIKV): 74%; EC50 (ZIKV; Huh-7, read-out: Titer Reduction Assay EC50): 5.2 µM; CC50 at 3 days [1]: 25 µM; EC50 (luciferase reporter ZIKV; Huh-7, read-out: ZIKV Reporter Assay EC50): 3.5 µM |
| Nc1cc(Cn2nc(COc3ccccc3)c3c(N)ncnc32)ccn1 [Compound 22, 1-((2-Aminopyridin-4-yl)methyl)-3-(phenoxymethyl)-1H-pyrazolo[3,4-d]pyrimidin-4-amine] | 36% | 67% |  |  |
| Nc1ccc(Cn2nc(COc3ccccc3)c3c(N)ncnc32)cn1 [Compound 23, 1-((6-Aminopyridin-3-yl)methyl)-3-(phenoxymethyl)-1H-pyrazolo[3,4-d]pyrimidin-4-amine] | 82% | 49% | 20% |  |
| CC(C)(C)OC(=O)Nc1cc(Cn2nc(COc3ccccc3)c3c(N)ncnc32)ccn1 [Compound 24, Tert-Butyl (4-((4-Amino-3-(phenoxymethyl)-1H-pyrazolo[3,4-d]pyrimidin-1-yl)methyl)pyridin-2-yl)carbamate] | 36% | 62% |  |  |
| CC(C)(C)OC(=O)Nc1ccc(Cn2nc(COc3ccccc3)c3c(N)ncnc32)cn1 [Compound 25, Tert-Butyl (5-((4-Amino-3-(phenoxymethyl)-1H-pyrazolo[3,4-d]pyrimidin-1-yl)methyl)pyridin-2-yl)carbamate] | 40% | 68% |  |  |
| Cc1ccccc1OCc1nn(Cc2ccc([N+](=O)[O-])cc2)c2ncnc(N)c12 [Compound 26, 1-(4-Nitrobenzyl)-3-((o-tolyloxy)methyl)-1H-pyrazolo[3,4-d]pyrimidin-4-amine] | 77% | 60% |  |  |
| Cc1cccc(OCc2nn(Cc3ccc([N+](=O)[O-])cc3)c3ncnc(N)c23)c1 [Compound 27, 1-(4-Nitrobenzyl)-3-((m-tolyloxy)methyl)-1H-pyrazolo[3,4-d]pyrimidin-4-amine] | 82% | 71% | 53% |  |
| Cc1ccc(OCc2nn(Cc3ccc([N+](=O)[O-])cc3)c3ncnc(N)c23)cc1 [Compound 28, 1-(4-Nitrobenzyl)-3-((p-tolyloxy)methyl)-1H-pyrazolo[3,4-d]pyrimidin-4-amine] | 85% | 65% | 34% |  |
| Nc1ncnc2c1c(COc1ccccc1Cl)nn2Cc1ccc([N+](=O)[O-])cc1 [Compound 29, 3-((2-Chlorophenoxy)methyl)-1-(4-nitrobenzyl)-1H-pyrazolo[3,4-d]pyrimidin-4-amine] | 94% | 34% |  |  |
| Nc1ncnc2c1c(COc1cccc(Cl)c1)nn2Cc1ccc([N+](=O)[O-])cc1 [Compound 30, 3-((3-Chlorophenoxy)methyl)-1-(4-nitrobenzyl)-1H-pyrazolo[3,4-d]pyrimidin-4-amine] | 93% | 52% | 11% |  |
| Nc1ncnc2c1c(COc1ccc(Cl)cc1)nn2Cc1ccc([N+](=O)[O-])cc1 [Compound 31, 3-((4-Chlorophenoxy)methyl)-1-(4-nitrobenzyl)-1H-pyrazolo[3,4-d]pyrimidin-4-amine] | 94% | 60% | 40% |  |
